How the values were obtained:
[1] = bacteroides thetaiotaomicron, 12 h, 2 µM
Description: The drug is tested on Bacteroides thetaiotaomicron strain: VPI-5482 for biotransformation. The drug concentrations were measured before and after a 12-h incubation by liquid-chromatography-coupled mass spectrometry (LC–MS)

[2] = bifidobacterium adolescentis, 12 h, 2 µM
Description: The drug is tested on Bifidobacterium adolescentis strain: ATCC 15703 for biotransformation. The drug concentrations were measured before and after a 12-h incubation by liquid-chromatography-coupled mass spectrometry (LC–MS)

[3] = The drug is tested on Bacteroides sp. WH2 strain: WH2 for biotransformation. The drug concentrations were measured before and after a 12-h incubation by liquid-chromatography-coupled mass spectrometry (LC–MS); conditions: bacteroides sp. wh2, 12 h, 2 µM
[4] = The drug is tested on Eubacterium hallii strain: DSM3353 for biotransformation. The drug concentrations were measured before and after a 12-h incubation by liquid-chromatography-coupled mass spectrometry (LC–MS); conditions: anaerobutyricum hallii, 2 µM
[5] = The drug is tested on Ruminococcus torques strain: ATCC27756 for biotransformation. The drug concentrations were measured before and after a 12-h incubation by liquid-chromatography-coupled mass spectrometry (LC–MS); assay type: ADME; parameters: dose 2 uM, timepoint 0 vs 12 hours; conditions: 2 µM
[6] = parabacteroides distasonis, 12 h, 2 µM
Description: The drug is tested on Parabacteroides distasonis strain: ATCC8503 for biotransformation. The drug concentrations were measured before and after a 12-h incubation by liquid-chromatography-coupled mass spectrometry (LC–MS)

[7] = The drug is tested on Providencia stuartii strain: ATCC25827 for biotransformation. The drug concentrations were measured before and after a 12-h incubation by liquid-chromatography-coupled mass spectrometry (LC–MS); conditions: 2 µM
[8] = The drug is tested on Collinsella aerofaciens strain: ATCC25986 for biotransformation. The drug concentrations were measured before and after a 12-h incubation by liquid-chromatography-coupled mass spectrometry (LC–MS); conditions: 2 µM
[9] = The drug is tested on Clostridium symbiosum strain: ATCC14940 for biotransformation. The drug concentrations were measured before and after a 12-h incubation by liquid-chromatography-coupled mass spectrometry (LC–MS); conditions: 2 µM
[10] = The drug is tested on Escherichia coli strain: BW25113 for biotransformation. The drug concentrations were measured before and after a 12-h incubation by liquid-chromatography-coupled mass spectrometry (LC–MS); conditions: 2 µM
[11] = The drug is tested on Blautia hansenii strain: DSM20583 for biotransformation. The drug concentrations were measured before and after a 12-h incubation by liquid-chromatography-coupled mass spectrometry (LC–MS); conditions: 2 µM
[12] = parabacteroides johnsonii, 12 h, 2 µM
Description: The drug is tested on Parabacteroides johnsonii strain: DSM18315 for biotransformation. The drug concentrations were measured before and after a 12-h incubation by liquid-chromatography-coupled mass spectrometry (LC–MS)

[13] = enterocloster bolteae, 12 h, 2 µM
Description: The drug is tested on Clostridium bolteae strain: ATCCBAA-613 for biotransformation. The drug concentrations were measured before and after a 12-h incubation by liquid-chromatography-coupled mass spectrometry (LC–MS)

[14] = bacteroides fragilis, 12 h, 2 µM
Description: The drug is tested on Bacteroides fragilis strain: 3397 (T10) for biotransformation. The drug concentrations were measured before and after a 12-h incubation by liquid-chromatography-coupled mass spectrometry (LC–MS)

[15] = The drug is tested on Bacteroides pectinophilus strain: ATCC43243 for biotransformation. The drug concentrations were measured before and after a 12-h incubation by liquid-chromatography-coupled mass spectrometry (LC–MS); conditions: 2 µM
[16] = The drug is tested on Clostridium scindens strain: ATCC35704 for biotransformation. The drug concentrations were measured before and after a 12-h incubation by liquid-chromatography-coupled mass spectrometry (LC–MS); conditions: 2 µM
[17] = The drug is tested on Clostridium ramosum strain: DSM1402 for biotransformation. The drug concentrations were measured before and after a 12-h incubation by liquid-chromatography-coupled mass spectrometry (LC–MS); conditions: thomasclavelia ramosa, 2 µM
[18] = The drug is tested on Enterobacter cancerogenus strain: ATCC35316 for biotransformation. The drug concentrations were measured before and after a 12-h incubation by liquid-chromatography-coupled mass spectrometry (LC–MS); conditions: 2 µM
[19] = The drug is tested on Providencia rettgeri strain: DSM1131 for biotransformation. The drug concentrations were measured before and after a 12-h incubation by liquid-chromatography-coupled mass spectrometry (LC–MS); assay type: ADME; parameters: dose 2 uM, timepoint 0 vs 12 hours; conditions: 2 µM
[20] = The drug is tested on Bifidobacterium longum subsp. Infantis strain: CCUG52486 for biotransformation. The drug concentrations were measured before and after a 12-h incubation by liquid-chromatography-coupled mass spectrometry (LC–MS); conditions: 2 µM

| Bacterial Biotransformation [1] | Bacterial Biotransformation [2] | Bacterial Biotransformation [3] | Bacterial Biotransformation [4] | Bacterial Biotransformation [5] | Bacterial Biotransformation [6] | Bacterial Biotransformation [7] | Bacterial Biotransformation [8] | Bacterial Biotransformation [9] | Bacterial Biotransformation [10] | Bacterial Biotransformation [11] | Bacterial Biotransformation [12] | Bacterial Biotransformation [13] | Bacterial Biotransformation [14] | Bacterial Biotransformation [15] | Bacterial Biotransformation [16] | Bacterial Biotransformation [17] | Bacterial Biotransformation [18] | Bacterial Biotransformation [19] | Bacterial Biotransformation [20] | Compound |
| --- | --- | --- | --- | --- | --- | --- | --- | --- | --- | --- | --- | --- | --- | --- | --- | --- | --- | --- | --- | --- |
| Compound metabolized | Compound NOT metabolized | Compound metabolized | Compound NOT metabolized | Compound NOT metabolized | Compound metabolized | Compound NOT metabolized | Compound metabolized | Compound NOT metabolized | Compound NOT metabolized | Compound NOT metabolized | Compound metabolized | Compound NOT metabolized | Compound metabolized | Compound NOT metabolized | Compound NOT metabolized | Compound NOT metabolized | Compound NOT metabolized | – | – | CCOC(=O)[C@H](CCc1ccccc1)N[C@H]1CCc2ccccc2N(CC(=O)O)C1=O [BENAZEPRIL] |
| Compound NOT metabolized | Compound NOT metabolized | Compound NOT metabolized | Compound NOT metabolized | Compound NOT metabolized | – | Compound NOT metabolized | Compound NOT metabolized | Compound NOT metabolized | Compound NOT metabolized | Compound NOT metabolized | – | Compound NOT metabolized | Compound NOT metabolized | Compound NOT metabolized | Compound NOT metabolized | Compound NOT metabolized | Compound NOT metabolized | Compound NOT metabolized | Compound NOT metabolized | OC(CCN1CCCCC1)(c1ccccc1)C1CC2C=CC1C2 (centres undefined) [BIPERIDEN] |
| Compound metabolized | Compound metabolized | Compound metabolized | Compound metabolized | Compound metabolized | Compound metabolized | Compound metabolized | Compound metabolized | Compound metabolized | Compound metabolized | Compound metabolized | Compound metabolized | Compound metabolized | Compound metabolized | Compound metabolized | Compound metabolized | Compound metabolized | Compound metabolized | – | Compound metabolized | CCN(CC)C(=O)/C(C#N)=C/c1cc(O)c(O)c([N+](=O)[O-])c1 [ENTACAPONE] |
| Compound NOT metabolized | Compound NOT metabolized | Compound NOT metabolized | Compound NOT metabolized | Compound NOT metabolized | Compound metabolized | Compound metabolized | Compound metabolized | Compound NOT metabolized | Compound NOT metabolized | Compound metabolized | Compound metabolized | Compound metabolized | Compound NOT metabolized | Compound NOT metabolized | Compound metabolized | Compound metabolized | Compound metabolized | – | Compound NOT metabolized | CN1CCN(CC/C=C2/c3ccccc3Sc3ccc(S(=O)(=O)N(C)C)cc32)CC1 [THIOTHIXENE] |

— ChEMBL document CHEMBL5303573, “Mapping human microbiome drug metabolism by gut bacteria and their genes” (Nature, 2019)
